Measured values as given in patent publication US20240269139A1, “COMPOUNDS FOR TARGETED PROTEIN DEGRADATION OF KINASES” (DANA-FARBER CANCER INSTITUTE, INC., priority 2020, published 2024).
Where two headings read alike, the source gives them in different places.

Columns and labels:
[1] = molecular target: T1, protein kinases (human kinome) (Homo sapiens, UniProt P29320); format: cell-based
T1 sequence (P29320 21-983): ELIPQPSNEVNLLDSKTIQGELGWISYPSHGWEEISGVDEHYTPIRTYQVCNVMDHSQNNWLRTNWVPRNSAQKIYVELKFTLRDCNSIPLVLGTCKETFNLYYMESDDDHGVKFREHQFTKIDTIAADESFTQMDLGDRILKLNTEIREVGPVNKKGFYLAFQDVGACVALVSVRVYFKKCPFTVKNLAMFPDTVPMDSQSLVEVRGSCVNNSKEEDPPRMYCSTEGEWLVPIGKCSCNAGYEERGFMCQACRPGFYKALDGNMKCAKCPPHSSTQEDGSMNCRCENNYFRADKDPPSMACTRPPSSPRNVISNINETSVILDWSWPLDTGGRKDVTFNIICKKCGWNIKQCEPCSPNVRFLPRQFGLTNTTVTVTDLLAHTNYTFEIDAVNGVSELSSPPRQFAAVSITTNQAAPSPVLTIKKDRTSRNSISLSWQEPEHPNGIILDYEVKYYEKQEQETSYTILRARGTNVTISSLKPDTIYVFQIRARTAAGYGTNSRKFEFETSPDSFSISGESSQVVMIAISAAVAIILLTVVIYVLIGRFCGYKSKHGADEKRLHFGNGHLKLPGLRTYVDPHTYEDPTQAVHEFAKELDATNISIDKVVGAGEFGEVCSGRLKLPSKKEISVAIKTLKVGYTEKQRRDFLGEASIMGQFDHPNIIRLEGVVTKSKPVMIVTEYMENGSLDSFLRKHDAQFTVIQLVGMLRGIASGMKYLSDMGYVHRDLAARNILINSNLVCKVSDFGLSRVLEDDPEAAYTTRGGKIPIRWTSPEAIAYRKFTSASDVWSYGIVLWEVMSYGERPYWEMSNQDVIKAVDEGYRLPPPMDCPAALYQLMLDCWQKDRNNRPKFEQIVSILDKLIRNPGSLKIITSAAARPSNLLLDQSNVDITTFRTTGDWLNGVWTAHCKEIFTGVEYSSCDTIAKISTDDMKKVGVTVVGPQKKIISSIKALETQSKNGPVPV

[2] = molecular target: T2, protein kinases (human kinome) (Homo sapiens, UniProt O60285); format: cell-based; conditions: NUAK1 (O60285)
T2 sequence (O60285 1-661): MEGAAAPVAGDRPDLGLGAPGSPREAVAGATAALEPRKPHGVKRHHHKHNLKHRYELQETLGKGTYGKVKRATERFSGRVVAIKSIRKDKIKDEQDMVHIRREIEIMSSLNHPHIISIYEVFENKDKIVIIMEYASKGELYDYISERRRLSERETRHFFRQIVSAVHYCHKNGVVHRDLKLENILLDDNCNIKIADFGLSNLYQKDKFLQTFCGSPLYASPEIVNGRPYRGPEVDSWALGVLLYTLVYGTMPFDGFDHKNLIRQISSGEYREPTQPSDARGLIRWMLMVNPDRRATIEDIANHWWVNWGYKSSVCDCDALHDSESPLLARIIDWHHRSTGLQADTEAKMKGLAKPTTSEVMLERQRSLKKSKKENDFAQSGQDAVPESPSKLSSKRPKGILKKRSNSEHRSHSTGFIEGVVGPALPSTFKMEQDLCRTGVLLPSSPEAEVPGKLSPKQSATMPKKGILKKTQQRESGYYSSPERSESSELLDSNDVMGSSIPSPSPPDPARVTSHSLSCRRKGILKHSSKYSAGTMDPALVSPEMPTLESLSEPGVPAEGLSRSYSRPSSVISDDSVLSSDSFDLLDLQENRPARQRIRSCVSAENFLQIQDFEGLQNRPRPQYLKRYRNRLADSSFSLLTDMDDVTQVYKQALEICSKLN

[3] = experiment wp076, direction down
[4] = experiment wp146, direction down

Cc1ccc(NC(=O)c2cccc(C(F)(F)F)c2)cc1N1Cc2cnc(Nc3ccc(N4CCN(Cc5cn(CCCCCOc6cccc7c6C(=O)N(C6CCC(=O)NC6=O)C7=O)nn5)CC4)nc3)nc2N(C)C1=O (stereo not drawn) [DB0646, N-(3-(7-((6-(4-((1-(5-((2-(2,6-Dioxopiperidin-3-yl)-1,3-dioxoisoindolin-4-yl)oxy)pentyl)-1H-1,2,3-triazol-4-yl)methyl)piperazin-1-v)pyridin-3-yl)amino)-1-methyl-2-oxo-1,4-dihydropyrimido[4,5-d]pyrimidin-3(2H)-yl)-4-methylphenyl)-3-(trifluoromethyl)benzamide]
logFC EPHA3 ([1]; Accession P29320, experiment wp045, direction down): −0.5333 | logFC EPHA3 ([1]; Accession P29320, experiment wp103, direction down): −0.3715 | logFC EPHA3 ([1]; Accession P29320, experiment wp107, direction down): −0.4346 | logFC EPHA3 ([1]; Accession P29320, experiment wp117, direction down): −0.3587 | logFC EPHA3 ([1]; Accession P29320, experiment wp152, direction down): −0.3871 | logFC EPHA3 ([1]; Accession P29320, experiment wp160, 4 hr, direction down): −0.5814 | logFC EPHA3 ([1]; Accession P29320, experiment wp160, 8 hr, direction down): −0.5528 | logFC EPHA3 ([1]; EPHA3 (P29320), experiment wp045): −0.5333 | logFC EPHA3 ([1]; EPHA3 (P29320), experiment wp103): −0.3715 | logFC EPHA3 ([1]; EPHA3 (P29320), experiment wp107): −0.4346 | logFC EPHA3 ([1]; EPHA3 (P29320), experiment wp117): −0.3587 | logFC EPHA3 ([1]; EPHA3 (P29320), experiment wp152): −0.3871 | logFC EPHA3 ([1]; EPHA3 (P29320), experiment wp160, 4 hr): −0.5814 | logFC EPHA3 ([1]; EPHA3 (P29320), experiment wp160, 8 hr): −0.5528

Cc1ccc(NC(=O)c2cccc(C(F)(F)F)c2)cc1N1Cc2cnc(Nc3ccc(N4CCN(CCCCC(=O)N[C@H](C(=O)N5C[C@H](O)C[C@H]5C(=O)N[C@@H](C)c5ccc(-c6scnc6C)cc5)C(C)(C)C)CC4)nc3)nc2N(C)C1=O [DB1113]
logFC EPHA3 ([1]; Accession P29320, experiment wp168, direction down): −0.4182 | logFC EPHA3 ([1]; EPHA3 (P29320), experiment wp168): −0.4182

CCc1cnn2c(N(Cc3ccc(N)nc3)C(=O)CCOCCOCCOCCNC(=O)CNc3cccc4c3C(=O)N(C3CCC(=O)NC3=O)C4=O)cc(N3CCCC[C@H]3CCO)nc12 (stereo partly drawn) [MFH.5.115.2]
logFC ([2]; experiment wp076): −0.5264 | logFC [2, 3]: −0.5264

O=C1CCC(N2C(=O)c3cccc(NCCCCCCCCN4CCC(NC(=O)c5[nH]ncc5NC(=O)c5c(Cl)cccc5Cl)CC4)c3C2=O)C(=O)N1 (stereo not drawn) [MFH.5.126.1]
logFC ([2]; experiment wp076): −1.649 | logFC [2, 3]: −1.649

Cn1c(=O)c(-c2c(Cl)cccc2Cl)cc2cnc(Nc3ccc(OCCNC(=O)CCCCCCNC(=O)COc4cccc5c4C(=O)N(C4CCC(=O)NC4=O)C5=O)cc3)nc21 (stereo not drawn) [SB1.G.192.1]
logFC EPHA3 ([1]; Accession P29320, experiment wp071, direction down): −1.175 | logFC EPHA3 ([1]; Accession P29320, experiment wp081, direction down): −1.027 | logFC EPHA3 ([1]; Accession P29320, experiment wp131, direction down): −1.318 | logFC EPHA3 ([1]; EPHA3 (P29320), experiment wp071): −1.175 | logFC EPHA3 ([1]; EPHA3 (P29320), experiment wp081): −1.027 | logFC EPHA3 ([1]; EPHA3 (P29320), experiment wp131): −1.318

NC(=O)c1c(F)cccc1Nc1nc(Nc2ccc(S(=O)(=O)NCCOCCOCCOCCOCCNc3cccc4c3C(=O)N(C3CCC(=O)NC3=O)C4=O)cc2)ncc1Br (stereo not drawn) [TMX.02.138]
logFC ([2]; experiment wp146): −0.8254 | logFC [2, 4]: −0.8254

Cc1cc(Nc2ncc(Br)c(Nc3cccc(F)c3C(N)=O)n2)ccc1S(=O)(=O)NCCOCCOCCOCCOCCNc1cccc2c1C(=O)N(C1CCC(=O)NC1=O)C2=O (stereo not drawn) [TMX.02.174]
logFC ([2]; experiment wp146): −1.361 | logFC [2, 4]: −1.361
